Results taken from BindingDB's records for doi:10.1021/acs.jmedchem.1c00124 (Hemoshear Therapeutics, 2021).

What was measured:
[1] = Time-dependent inhibition of CYP2C19 in human liver microsomes using S-mephenytoin as substrate preincubated for 30 mins
[2] = Direct inhibition of CYP2D6 in human liver microsomes using bufuralol as substrate
[3] = Time-dependent inhibition of CYP2C9 in human liver microsomes using diclofenac as substrate preincubated for 30 mins
[4] = Time-dependent inhibition of CYP1A2 in human liver microsomes using Phenacetin as substrate preincubated for 30 mins
[5] = Time-dependent inhibition of CYP2D6 in human liver microsomes using bufuralol as substrate preincubated for 30 mins
[6] = Direct inhibition of CYP2C8 in human liver microsomes using amodiaquine as substrate
[7] = Time-dependent inhibition of CYP2C8 in human liver microsomes using amodiaquine as substrate preincubated for 30 mins
[8] = Direct inhibition of CYP2C9 in human liver microsomes using diclofenac as substrate
[9] = Direct inhibition of CYP2C19 in human liver microsomes using S-mephenytoin as substrate
[10] = Direct inhibition of CYP1A2 in human liver microsomes using Phenacetin as substrate

Measured: IC50

CCC(C)(C)C(=O)O [2,2-DIMETHYLBUTYRATE]
> 10 mM: all assays above
